IC50 data for one compound are collected here from ChEMBL document CHEMBL1159303, “Isolation and structure determination of obyanamide, a novel cytotoxic cyclic depsipeptide from the marine cyanobacterium Lyngbya confervoides” (J Nat Prod, 2002).

One assay concerns KB. The experiment in a line: Cytotoxicity against human KB cells. It is filed as functional, cell-based.
For the next assay, the system named is LoVo. Briefly: Cytotoxicity against human LoVo cells. It is filed as functional, cell-based.

≈ marks a conversion by molar mass, not a printed value.

As for `CC[C@H]1CC(=O)O[C@@H](C)C(=O)N(C)[C@@H](C(C)C)C(=O)N(C)[C@@H](Cc2ccccc2)C(=O)N[C@@H](C)c2nc(cs2)C(=O)N1` [OBYANAMIDE], the IC50 (commonly the point on the concentration scale where inhibition reaches its midpoint) worked out at 0.58 µg/mL (≈ 0.967 µM) in the assay on KB and 3.14 µg/mL (≈ 5.24 µM) in the assay with LoVo.
